Source: a melting point compilation (Tetko et al.; mined from patent text by program, amines drawn as free bases though some values may be those of a salt)

Row | SMILES | melting point
1 | CCOCn1c(-c2ccc(Cl)cc2)c(S(=O)(=O)c2ccc(Cl)cc2)c(Br)c1C(F)(F)F | 107 to 112 °C
2 | CC#CCOc1ccc(S(=O)(=O)N(C)c2c(C(=O)OCC)cnc3onc(C)c23)cc1 | 85 to 90 °C
3 | COc1ccc(OCc2ccccc2)c(C(=O)C=Cc2cccc([N+](=O)[O-])c2)c1 | 108 to 110 °C
4 | Nc1cc(Cl)cc(C(=O)N[C@@H]2CN3CCC2CC3)c1OCc1cccc(I)c1 | 102 to 104 °C
5 | COc1cc(C)cc(OC)c1C1=NC(NC(=O)Nc2ccccc2Cl)C(=O)N(C)c2ccccc21 (centres undefined) | 260 °C
6 | O=C1c2ccccc2-c2[nH]c(=O)cnc21 | > 300 °C
7 | COC12CC(C)(C)C(O1)C(O)C=C2C (centres undefined) | 52 to 54 °C
8 | COc1cc(-c2ccccc2)cc(-c2ccccc2)c1 | 93 to 94 °C
9 | O=C(CN1CCCC1)Nc1ccc2c(c1)C(=O)c1cc(NC(=O)CN3CCCC3)ccc1C2=O | 201 °C
10 | O=S1(=O)c2ccc(O)cc2Oc2cc(F)ccc21 | 258 to 260 °C
11 | CCOC(=O)c1cnn2c1c(OCC)nc1ccccc12 | 88 to 90 °C
12 | CCOC(=O)c1cnc2c([N+](=O)[O-])cccc2c1Cl | 253 to 254 °C
13 | O=C(NCCO)c1cccc(-c2ccc3ccn(Cc4ccc(Cl)cc4Cl)c3c2)c1 | 124 to 125 °C
14 | Fc1ccc(N2CCC(N3CCc4ccccc43)CC2)cc1 | 120 to 122 °C
15 | COc1ccc(N2CCN(c3c(C)c(C)c4c(c3C)C(OCc3ccc(C)cc3)C(C)(C)O4)CC2)cc1 (centres undefined) | 84 to 85 °C
16 | CS(=O)(=O)c1ccc(-c2cc3c(cc2Cc2cc(F)cc(F)c2)OCCO3)cc1 | 160 to 162 °C
17 | N#CC(Cc1ccccn1)(c1ccccc1)c1ccccc1 | 116 to 117 °C
18 | CC1Cc2ccc(Br)cc2C(c2ccc(N)cc2)=NN1C1CC1 (centres undefined) | 113 to 116 °C
19 | CC(C)[Si](C#Cc1ccc2cc3c(cc2c1)Cc1cc2cc(C#C[Si](C(C)C)(C(C)C)C(C)C)ccc2cc1C3)(C(C)C)C(C)C | 73 to 75 °C
20 | O=[N+]([O-])c1ccc(OCC(COc2ccc([N+](=O)[O-])cc2)(COc2ccc([N+](=O)[O-])cc2)COc2ccc([N+](=O)[O-])cc2)cc1 | 274 to 282 °C
21 | Cc1c(CCC2C(=O)OCCC2OC2CCCCO2)c2c(c(C)c1OCc1ccccc1)CCC(C)(C)O2 (centres undefined) | 95 to 95.5 °C
22 | CC(C)(C)C(=O)Nc1nc(OCCCCOCc2ccccc2)ccc1C=O | 82 to 84 °C
23 | Cc1nn(-c2ccccn2)cc1COc1ccc(COc2ncccc2C#N)cc1 | 108 to 109 °C
24 | CCn1ncc2c(Cl)c3c(nc21)C(=O)c1ccccc1CC3 | 156 to 159 °C
25 | CC(C)CC(=O)OC1COC(OC(=O)CC(C)C)CO1 (centres undefined) | 104 to 105 °C
26 | CS(=O)(=O)c1nnc(-c2ccnc(Nc3cccc(C(F)(F)F)c3)c2)o1 | 105 to 106 °C
27 | CC(C)(C)OC(=O)CN(C(=O)CCl)c1ccccc1 | 86 °C
28 | COC(=O)NC(=O)NS(=O)(=O)c1ccc(Cl)cc1 | 174 to 175 °C

Second part, the molecule after the results:

Row | melting point | SMILES
29 | 111 to 114 °C | CC(C)(C)OC(=O)C[C@H](NC(=O)CNC(=O)c1csc(NC(=O)NCc2ccccc2)n1)C(=O)OC(C)(C)C
30 | 156 to 158 °C | OCC1(c2ccc(Cl)cc2)CCN(CCC(c2ccccc2)(c2ccccc2)c2ccccc2)CC1
31 | 84 to 85 °C | C=CCOC1OC(C(O)CO)C(OCc2ccccc2)C1O (centres undefined)
32 | 90 to 93 °C | COCCOC(=O)c1c(S(C)(=O)=O)ccc(C(=O)O)c1C
33 | 59 to 61 °C | CCOC(=O)/C=C/c1ccc(OS(=O)(=O)C(F)(F)F)c(Cl)c1
34 | 133 °C | CCCc1cc(C(=O)OC)ccc1OCC(=O)CNc1cnn(C(C)C)c(=O)c1Cl
35 | 295 to 296 °C | COc1cc(OC)c2c(=O)[nH]c(-c3ccc(Cc4nnn[nH]4)cc3)nc2c1
36 | 143 to 144 °C | COc1ccc(CCN(O)C(=O)C(N)=O)cc1OC
37 | 175 to 177 °C | CCCCN1CCn2c1nc(C(=O)NCc1ccc(F)cc1C(=O)NC)c(O)c2=O
38 | 141 to 143 °C | COCCc1nc2c(N)nc3c(c2n1CCOCCNC(=O)c1ccccc1)CCCC3
39 | 249 to 250 °C | CC(C)(C)OC(=O)N1CCC(N2Cc3ccccc3NC2=NC#N)CC1
40 | 120 °C | CC(C(=O)c1ccc(F)cc1)N1CCC(O)(Cc2ccccc2)CC1 (centres undefined)
41 | 64 to 68 °C | CS(=O)(=O)c1ccc(C(CC2CCCC2)C(=O)O)cc1S(C)(=O)=O (centres undefined)
42 | 160 to 161 °C | O=C(CCCCCCNC(=O)c1cc2cccc3c2n1CCC3)NO
43 | 160 °C | O=C(/C=C/c1ccc2ccccc2n1)NO
44 | 139 to 141 °C | O=C(O)C1Cc2ccc3ccccc3c2C1 (single isomer, unassigned; (-))
45 | 125 to 127 °C | CCNC(=O)/C=C1\CCc2ccc(F)cc21
46 | 56 to 58 °C | CN(C)S(=O)(=O)c1cc2c(c(Cl)c1Cl)OC(C(=O)OCC(=O)OC(c1ccccc1)c1ccccc1)C2 (centres undefined)
47 | 102 to 103 °C | CN(C)S(=O)(=O)CS(=O)(=O)c1ccccc1
48 | 180 to 181 °C | COc1ccc(S(=O)(=O)Nc2cccnc2Nc2cccc(F)c2)cc1
49 | 74 to 78 °C | COc1ccc2c(c1)CC(=O)C2

Row | melting point | SMILES
50 | 173 to 175 °C | Fc1ccc(Nc2ncnc3cnc(NCCN4CCNCC4)nc23)cc1Cl
51 | 154 to 155 °C | O=C1C=CC(=O)N1c1cccc(I)c1
52 | 141 to 142 °C | COC(=O)C=Cc1cnc(SC)nc1NCc1ccc(OC)c(Cl)c1
53 | 94 to 98 °C | COc1ccc(CC2Cc3cc(C)cnc3C(OC(C)=O)C2)cc1 (single isomer, unassigned; (+))
54 | 180 to 182 °C | CC(=O)Oc1ccc2c(c1)CCC1C2C(O)CC2(C)C(=O)CCC12 (centres undefined)
55 | 221 °C | Oc1ccc(-c2nnsc2-c2ccc(O)cc2)cc1
56 | 53 °C | CN1C(=O)CN(CCC#N)C1=O
57 | 208 to 209 °C | O=C(Nc1ccc(Br)cc1)N1COC2(c3ccc(F)cc3)Cc3cc(F)ccc3C2=N1 (centres undefined)
58 | 111 to 112 °C | CC1CCC(C(C)C)C(OC(=O)N2CC3CC(C2)CN(C(=O)C2(O)NCCC2Oc2ccc(C#N)cc2)C3)C1 (single isomer, unassigned; (-))
59 | 148 to 154 °C | CC(=O)N(CC(=O)O)c1c(C(=O)c2ccccc2)[nH]c2cc(Cl)ccc12
60 | 91 to 94 °C | O=C(O)c1ccc(OCCNC(=O)C2Cc3ccccc3N2S(=O)(=O)c2ccc(-c3ccc(F)cc3F)cc2)cc1F (centres undefined)
61 | 26 to 28 °C | CCOC(=O)/C=C/c1cccc(Br)c1
62 | 162 to 164 °C | CCOC(=O)c1cnc2c(OC)cccc2c1Nc1cscc1C
63 | 175 to 178 °C | CO/N=C1\CCc2ccccc2C1=Cc1ccc(S(C)(=O)=O)cc1
64 | 233 to 235 °C | Cc1cccc(C)c1N1CC(=O)N(c2c(C)cccc2C)CC1=O
65 | 123 to 126 °C | Cc1nc(C)c(Cl)c(NCc2nccc(SCCCN3CCN(CC4CN(Cc5ccncc5)C(=O)O4)CC3)c2C)n1 (centres undefined)
66 | 139 to 140 °C | Fc1ccc(-c2ncn(CCCCl)c2-c2ccncc2)cc1
67 | 140 to 142 °C | CC(=O)NCc1ccc(C(=O)CCCN2CCC(c3noc4cc(F)ccc34)CC2)s1
68 | 114 to 117 °C | O=Cc1cc(CSc2c(Cl)cccc2Cl)ccc1O
69 | 86 to 87 °C | CC(=O)C=Cc1c(C)c(C)c2c(c1C)CC(C)(C)O2
